The NIST ThermoML archive (doi:10.1021/acs.jced.8b00153)

Columns and labels:
[1] = refractive index (Na D-line) (dimensionless); conditions: 100 kPa, Liquid, Standard Abbe refractometry
[2] = relative permittivity at various frequencies (dimensionless); conditions: 100 kPa, Liquid, Frequency=2 MHz, Parallel plate capacitor

CCc1cccs1 [2-ethylthiophene]
Conditions | refractive index, [1] | relative permittivity, [2]
278.15 K | – | 2.968
280.65 K | – | 2.959
283.15 K | 1.51841 | 2.946
285.65 K | 1.51699 | 2.936
288.15 K | 1.51557 | 2.929
290.65 K | 1.51417 | 2.916
293.15 K | 1.51272 | 2.911
295.65 K | 1.51125 | 2.9
298.15 K | 1.50981 | 2.887
300.65 K | 1.50841 | 2.878
303.15 K | 1.50698 | 2.871
305.65 K | 1.50556 | 2.858
308.15 K | 1.50413 | 2.848
310.65 K | 1.50269 | 2.838
313.15 K | 1.50125 | 2.833
315.65 K | 1.49981 | 2.82
318.15 K | 1.49836 | 2.81
320.65 K | 1.49695 | 2.799
323.15 K | 1.4955 | 2.792
325.65 K | 1.49405 | 2.782
328.15 K | 1.49261 | 2.775
330.65 K | 1.49116 | 2.766
333.15 K | 1.48973 | 2.753
335.65 K | 1.48827 | 2.745
338.15 K | 1.48684 | 2.734

CCc1ccco1 [2-ethylfuran]
Conditions | refractive index, [1] | relative permittivity, [2]
278.15 K | – | 2.837
280.65 K | – | 2.823
283.15 K | 1.44533 | 2.813
285.65 K | 1.4439 | 2.798
288.15 K | 1.44245 | 2.784
290.65 K | 1.44101 | 2.766
293.15 K | 1.43956 | 2.756
295.65 K | 1.43817 | 2.739
298.15 K | 1.43672 | 2.725
300.65 K | 1.43531 | 2.709
303.15 K | 1.43387 | 2.699
305.65 K | 1.43244 | 2.682
308.15 K | 1.431 | 2.668
310.65 K | 1.42958 | 2.657
313.15 K | 1.42814 | 2.643
315.65 K | 1.42671 | 2.626
318.15 K | 1.42528 | 2.611
320.65 K | 1.42385 | 2.601
323.15 K | 1.42241 | 2.583
325.65 K | 1.42097 | 2.573
328.15 K | 1.41953 | 2.559
330.65 K | 1.4181 | 2.544
333.15 K | 1.41669 | 2.527
335.65 K | 1.41523 | 2.516
338.15 K | 1.41379 | 2.503
